Source: US20140024663A1, “ATB(0,+) AMINO ACID TRANSPORTER AS A DRUG TARGET FOR TREATMENT OF ESTROGEN RECEPTOR-POSITIVE BREAST CANCER” (GEORGIA HEALTH SCIENCES UNIVERSITY RESEARCH INSTITUTE, INC., priority 2012, published 2014)

Assays:
MCF7 cells [1] = assay: Analysis of autophagy (LC3 localization, electron microscopy, autophagosomal proteolysis, GFP-LC3); assay type: cell-based, human; details: 48 h
Protocol: FIGS. 6A to 6C. Effects of SLC6A14 blockade with α-MT in breast cancer cells. In FIG. 6A, MCF10A (a non-malignant mammary epithelial cell line), MCF7 (an ER-positive breast cancer cell line), and MB231 (an ER-negative breast cancer cell line) cells were treated with or without 2.5 mM α-MT for 24, 48, or 72 h and then used for analysis of asparagine synthetase (ASNS) and CHOP mRNA levels. In FIG. 6B, MCF7, MB231 and MCF10A cells were treated with or without 2.5 mM α-MT for 48 h and then used for immunocytochemical analysis of the constitutively expressed LC-3. In FIG. 6C, MCF7 cells were treated with (“b” and “c”) or without (“a”) α-MT (2.5 mM) for 48 h and then used for electron microscopy. Arrows indicate sequestration of cytoplasm and organelles in pre-autophagosomes and autophagosome, and the asterisk indicates condensed chromatin. N, nucleus.
FIGS. 7A and 7B. Induction of autophagy in MCF7 cells by α-MT. […] The concentrations of α-MT and 3-MA, when present, were 2.5 mM and 10 mM. The treatment time was 48 h. The extent of proteolysis was determined by the radioactivity present in the protein-free supernatant. […] In FIG. 7B, MCF7 cells were transfected with an GFP-LC3 expression plasmid, and 24 h later, the cells were treated with or without α-MT (2.5 mM) in the presence or absence of 3-MA (10 mM) for 48 h. At the end of the treatment, cells were fixed, and the percent of cells with punctate localization of the ectopically expressed GFP-LC3 was quantified. “a” represents compared to control; “b” represents compared to treatment with α-MT alone; and “c” represents compared to treatment with […]; *, p<0.001.
Analysis of autophagy. Autophagy was analyzed as described previously (Periyasamy-Thandavan et al., 2010, Autophagy; 6:19-35; and Samaddar et al., 2008, Mol Cancer Ther; 7:2977-2987) by monitoring the localization pattern of constitutively expressed LC3 as well as that of ectopically expressed GFP-LC3. In the case of the constitutively expressed LC3, cells were treated without or with α-MT, and then used for immunocytochemical analysis of LC3 localization pattern. For ectopically expressed LC3, cells were transfected with a GFP-LC3 expression plasmid. Briefly, cells were plated on a coverslip to reach ˜50% confluence and transfection of these cells was done with 1 μg of the plasmid using FuGENE transfection reagent (Roche, Nutley, N.J.). […] At the end of the treatment, cells were fixed with 4% paraformaldehyde and examined by fluorescence microscopy to count the number of cells with punctate GFP-LC3. Autophagosomal proteolysis was quantified as described previously (Periyasamy-Thandavan et al., 2010, Autophagy; 6:19-35). […]

MB231 cells = assay: Cell death by propidium iodide staining and FACS cell cycle analysis; assay type: cell-based, human; details: MB231, α-MT 2.5 mM and 3-MA 10 mM, either alone or together, 48 h
Protocol: (§1) FIGS. 9A to 9D. Influence of α-MT on mTOR activity In FIG. 9A, MCF7 and MB231 cells were treated without or with α-MT (2.5 mM) for 24 h, 48 h, or 72 h, and then the cell lysates were used for western blot. Influence of α-MT with or without 3-MA on cell death. In FIG. 9B, MCF7, MB231, and MCF10A cells were treated for 48 h without or with α-MT (2.5 mM), 3-MA (10 mM), or α-MT (2.5 mM) plus 3-MA (10 mM), and then analyzed for cell death by propidium iodide (PI) staining and FACS-based cell cycle analysis. In FIG. 9C, MCF7 cells were treated for 48 h without or with α-MT (2.5 mM), 3-MA (10 mM), or α-MT (2.5 mM) plus 3-MA (10 mM), and then analyzed for apoptotic cell death by annexin V labeling. In FIG. 9D, MCF7 and MB231 cells were treated without or with 2.5 mM α-MT for 24 h, 48 h, or 72 h. Cell lysates were then used for western blot analysis of lamin A degradation product using an antibody that recognizes specifically the proteolytic cleavage product. β-Actin was used as an internal control.
(§2) Apoptosis assay. Fluorescence-activated cell sorting (FACS) was used to monitor cell death. MCF7 cells were treated with or without α-MT, 3-MA, or α-MT plus 3-MA. Control and treated cells were then fixed in 50% ethanol, treated with 0.1% sodium citrate, 1 mg/ml RNase A, and 50 μg/ml propidium iodide, and then subjected to FACS analysis (FACS Caliber, Becton Dickinson). FITC-labeled annexin V was used to differentiate apoptotic cell death from necrotic cell death.

MCF10A cells = assay: as above; assay type: cell-based, human; details: α-MT 2.5 mM and 3-MA 10 mM, either alone or together, 48 h
Protocol: as §1, §2

MCF7 cells [2] = assay: Apoptotic cell death by annexin V labeling; assay type: cell-based, human; details: 48 h
Protocol: as §1, §2

Human SLC6A14 = target: T1, Human SLC6A14 (Homo sapiens, UniProt Q9UN76); assay: SLC6A14 transport function in X. laevis oocytes (two-microelectrode voltage-clamp); assay type: cell-based; details: for Hill coefficient of Na+-activation kinetics (number of Na+ involved in the activation process): SLC6A14-mediated transport, amino acid 1 mM, Cl- constant at 100 mM, three oocytes; for inward currents on perifusion of SLC6A14-expressing oocytes: amino acid 100 M (so in the source), in the presence of NaCl
T1 construct: expressed in transfected cells; host or cells: Xenopus laevis oocytes, microinjected with human SLC6A14 cRNA
T1 sequence (Q9UN76 1-642): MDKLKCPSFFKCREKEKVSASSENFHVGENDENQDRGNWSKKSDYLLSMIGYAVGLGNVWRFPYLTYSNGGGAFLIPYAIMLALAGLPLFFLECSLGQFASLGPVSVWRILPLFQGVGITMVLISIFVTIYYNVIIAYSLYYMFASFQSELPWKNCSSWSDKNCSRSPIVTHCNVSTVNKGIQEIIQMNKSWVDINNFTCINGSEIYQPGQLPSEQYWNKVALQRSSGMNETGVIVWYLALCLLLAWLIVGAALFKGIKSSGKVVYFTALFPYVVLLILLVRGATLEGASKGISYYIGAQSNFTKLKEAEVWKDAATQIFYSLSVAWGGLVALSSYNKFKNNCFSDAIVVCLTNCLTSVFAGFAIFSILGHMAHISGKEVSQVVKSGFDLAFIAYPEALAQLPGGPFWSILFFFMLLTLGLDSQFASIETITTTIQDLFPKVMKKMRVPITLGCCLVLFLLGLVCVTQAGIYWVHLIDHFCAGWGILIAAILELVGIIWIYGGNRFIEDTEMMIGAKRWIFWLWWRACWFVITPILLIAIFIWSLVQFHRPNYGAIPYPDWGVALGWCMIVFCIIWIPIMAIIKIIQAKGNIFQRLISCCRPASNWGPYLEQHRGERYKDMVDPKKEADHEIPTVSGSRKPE
Description: FIGS. 3A and 3B. Natactivation kinetics of SLC6A14-mediated transport of leucine (FIG. 3A) and arginine and glutamine (FIG. 3B). Human SLC6A14 was expressed heterologously in X. laevis oocytes by microinjection of cRNA. Four days following injection, oocytes were used for electrophysiological studies using the two-microelectrode voltage-clamp method. […] Since the expression levels varied from oocyte to oocyte resulting in varying magnitudes of amino acid-induced currents, the currents were normalized by taking the magnitude of the currents induced at 100 mM Na^+ as 1 in each oocyte and calculating the magnitude of the currents induced at other concentrations of Na^+ as a fraction of this maximal current. The experiments were done with three different oocytes and the results are given as means±SE. Insets, Hill plots.
FIG. 4. Cl^−-activation kinetics of SLC6A14-mediated transport of leucine, arginine, and glutamine. […] The experiments were done with three different oocytes and the results are given as means±SE.
FIGS. 5A to 5C. Blockade of SLC6A14-mediated transport of leucine (FIG. 5A), glutamine (FIG. 5B), and arginine (FIG. 5C) by α-MT. Oocytes injected with human SLC6A14 cRNA were perifused with 100 µM leucine, 100 μM glutamine, or 100 μM arginine under varying experimental conditions as indicated.
Analysis of SLC6A14 transport function in X. laevis oocytes. SLC6A14-mediated transport of leucine, glutamine, and arginine and its blockade by α-MT were studied using the X. laevis oocyte heterologous expression system as described previously (Hatanaka et al., 2001, J Clin Invest; 107:1035-1043; and Karunakaran et al., 2008, Biochem J; 414:343-355). Human cloned SLC6A14 cDNA was used in these studies.

Row | Compound | inhibition of α-MT-induced proteolysis of 14C-labeled proteins (MCF7 cells [1]; MCF7, cotreatment 3-MA 10 mM with α-MT 2.5 mM) | block of autophagy induced by α-MT (MCF7 cells [1]; MCF7 transfected with GFP-LC3, 3-MA 10 mM plus α-MT 2.5 mM) | effect on cell death (MB231 cells) | effect on cell death (MCF10A cells) | apoptotic cell death by annexin V labeling (MCF7 cells [2]; MCF7, 3-MA 10 mM combined with α-MT 2.5 mM, compared with either agent alone) | apoptotic cell death by annexin V labeling (MCF7 cells [2]; MCF7, single agent (α-MT 2.5 mM or 3-MA 10 mM)) | Hill coefficient of Na+-activation kinetics (number of Na+ involved in the activation process) (Human SLC6A14) | inward currents on perifusion of SLC6A14-expressing oocytes (Human SLC6A14)
1 | Cn1cnc(N)c2ncnc1-2 [3-MA, 3-methyladenine, reference compound] | inhibited significantly | > 90% | very little, if any, effect | very little, if any, effect | much greater | significant apoptosis |  | 
2 | N=C(N)NCCC[C@H](N)C(=O)O [arginine] |  |  |  |  |  |  | 2.1 | induced inward currents
3 | NC(=O)CC[C@H](N)C(=O)O [glutamine] |  |  |  |  |  |  | 2.4 | induced inward currents
4 | CC(C)C[C@H](N)C(=O)O [leucine] |  |  |  |  |  |  | 2.2 | induced inward currents
